Test results: patent publication US7196103B2, “Indole derivatives as factor Xa inhibitors” (Sanofi-Aventis Deutschland GmbH, priority 2003, dated 2007)

Molecular target: T1, human factor Xa (Homo sapiens, UniProt P00742)
T1 construct: human factor Xa; purchased Enzyme Research Laboratories, Inc; South Bend, Ind
Test: Factor Xa assay (chromogenic, inhibition of factor Xa activity)
Type: biochemical
Settings: purified human factor Xa 0.5 nM, chromogenic substrate S-2765 140 μM, 25° C., pH 7.8; Ki calculated from IC50 corrected for substrate competition; read-out: Ki (inhibition constant) for the inhibition of factor Xa
Protocol: Purified enzymes were used in chromogenic assays.
The assay was performed by pre-incubating the compound of formula I plus enzyme for 10 min. Then the assay was initiated by adding substrate to obtain a final volume of 100 μl. The initial velocity of chromogenic substrate hydrolysis was measured by the change in absorbance at 405 nm using a Bio-tek Instruments kinetic plate reader (Ceres UV900HDi) at 25° C. during the linear portion of the time course (usually 1.5 min after addition of substrate).

T1 sequence (P00742 235-488 limits assumed): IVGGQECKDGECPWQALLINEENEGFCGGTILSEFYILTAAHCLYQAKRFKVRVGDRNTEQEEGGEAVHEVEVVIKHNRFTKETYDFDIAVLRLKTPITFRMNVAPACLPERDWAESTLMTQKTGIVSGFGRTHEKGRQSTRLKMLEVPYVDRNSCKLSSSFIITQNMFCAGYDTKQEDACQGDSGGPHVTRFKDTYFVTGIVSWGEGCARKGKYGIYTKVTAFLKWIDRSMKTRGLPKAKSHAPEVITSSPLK
T1 sequence (P00742 41-179 partner limits assumed): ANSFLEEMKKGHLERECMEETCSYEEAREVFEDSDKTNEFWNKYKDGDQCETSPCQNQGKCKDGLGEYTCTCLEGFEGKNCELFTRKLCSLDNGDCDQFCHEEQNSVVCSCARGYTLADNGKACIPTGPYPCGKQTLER

Compound	Ki [nM]
CC(C)N1CCC(NC(=O)c2cc3cc(C(=O)N4CCCOCC4)ccc3n2CC(=O)Nc2ccc(Cl)cn2)CC1 [Example 4, 1-[(5-Chloro-pyridin-2-ylcarbamoyl)-methyl]-5-([1,4]oxazepane-4-carbonyl)-1H-indole-2-carboxylic acid (1-isopropyl-piperidin-4-yl)-amide]	22
CC(C)N1CCC(NC(=O)c2cc3cc(C(=O)OCC4COC(=O)O4)ccc3n2Cc2cc(-c3ccc(Cl)s3)on2)CC1 (stereo not drawn) [Example 3, 1-[5-(5-Chloro-thiophen-2-yl)-isoxazol-3-ylmethyl]-2-(1-isopropyl-piperidin-4-ylcarbamoyl)-1H-indole-5-carboxylic acid 2-oxo-[1,3]dioxolan-4-ylmethyl ester]	14
COc1cccc(Cn2c(C(=O)NC3CCN(C(C)C)CC3)cc3c(C(=O)N4CC(O)C4)cccc32)c1 [Example 9, 4-(3-Hydroxy-azetidine-1-carbonyl)-1-(3-methoxy-benzyl)-1H-indole-2-carboxylic acid (1-isopropyl-piperidin-4-yl)-amide]	124
CC(C)N1CCC(NC(=O)c2cc3cc(C(=O)N4CCCC4CO)ccc3n2Cc2cc(-c3ccc(Cl)s3)on2)CC1 (stereo not drawn) [Example 2, 1-[5-(5-Chloro-thiophen-2-yl)-isoxazol-3-ylmethyl]-5-(2-hydroxymethyl-pyrrolidine-1-carbonyl)-1H-indole-2-carboxylic acid (1-isopropyl-piperidin-4-yl)-amide]	113
Cc1oc(=O)oc1COC(=O)c1ccc2c(c1)cc(C(=O)NC1CCN(C(C)C)CC1)n2Cc1cc(-c2ccc(Cl)s2)on1 [Example 15, 1-[5-(5-Chloro-thiophen-2-yl)-isoxazol-3-ylmethyl]-2-(1-isopropyl-piperidin-4-ylcarbamoyl)-1H-indole-5-carboxylic acid 5-methyl-2-oxo-[1,3]dioxol-4-ylmethyl ester]	11
CC(C)N1CCC(NC(=O)c2cc3cc(C(=O)N4CC(O)C4)ccc3n2Cc2cc(-c3ccc(Cl)s3)on2)CC1 [Example 1, 1-[5-(5-Chloro-thiophen-2-yl)-isoxazol-3-ylmethyl]-5-(3-hydroxy-azetidine-1-carbonyl)-1H-indole-2-carboxylic acid (1-isopropyl-piperidin-4-yl)-amide]	57
COc1cccc(Cn2c(C(=O)NC3CCN(C(C)C)CC3)cc3c(C(=O)N4CC(OC)C4)cccc32)c1 [Example 8, 4-(3-Methoxy-azetidine-1-carbonyl)-1-(3-methoxy-benzyl)-1H-indole-2-carboxylic acid (1-isopropyl-piperidin-4-yl)-amide]	133
COCCOC(=O)OC(C)OC(=O)c1ccc2c(c1)cc(C(=O)NC1CCN(C(C)C)CC1)n2CC(=O)Nc1ccc(Cl)cn1 (stereo not drawn) [Example 5, 1-[(5-Chloro-pyridin-2-ylcarbamoyl)-methyl]-2-(1-isopropyl-piperidin-4-ylcarbamoyl)-1H-indole-5-carboxylic acid 1-(2-methoxy-ethoxycarbonyloxy)-ethyl ester]	9
CC(C)N1CCC(NC(=O)c2cc3cc(C(=O)N4CC(O)C4)ccc3n2CC(=O)Nc2ccc(Cl)cn2)CC1 [Example 11, 1-[(5-Chloro-pyridin-2-ylcarbamoyl)-methyl]-5-(3-hydroxy-azetidine-1-carbonyl)-1H-indole-2-carboxylic acid (1-isopropyl-piperidin-4-yl)-amide]	8
COCCOC(=O)OC(C)OC(=O)c1cccc2c1cc(C(=O)NC1CCN(C(C)C)CC1)n2CC(=O)Nc1ccc(Cl)cn1 (stereo not drawn) [Example 13, 1-[(5-Chloro-pyridin-2-ylcarbamoyl)-methyl]-2-(1-isopropyl-piperidin-4-ylcarbamoyl)-1H-indole-4-carboxylic acid 1-(2-methoxy-ethoxycarbonyloxy)-ethyl ester]	2
CC(C)N1CCC(NC(=O)c2cc3cc(C(=O)N4CCCOCC4)ccc3n2CC(=O)Nc2ccc(Cl)nc2)CC1 [Example 6, 1-[(6-Chloro-pyridin-3-ylcarbamoyl)-methyl]-5-([1,4]oxazepane-4-carbonyl)-1H-indole-2-carboxylic acid (1-isopropyl-piperidin-4-yl)-amide]	375
CC(C)ONC(=O)c1ccc2c(c1)cc(C(=O)NC1CCN(C(C)C)CC1)n2Cc1cc(-c2ccc(Cl)s2)on1 [Example 10, 1-[5-(5-Chloro-thiophen-2-yl)-isoxazol-3-ylmethyl]-1H-indole-2,5-dicarboxylic acid 5-(isopropoxy-amide) 2-[(1-isopropyl-piperidin-4-yl)-amide]]	24
CC(C)N1CCC(NC(=O)c2cc3c(C(=O)N4CC(O)C4)cccc3n2Cc2cc(-c3ccc(Cl)s3)on2)CC1 [Example 12, 1-[5-(5-Chloro-thiophen-2-yl)-isoxazol-3-ylmethyl]-4-(3-hydroxy-azetidine-1-carbonyl)-1H-indole-2-carboxylic acid (1-isopropyl-piperidin-4-yl)-amide]	14
CC(C)N1CCC(NC(=O)c2cc3c(C(=O)N4CCCOCC4)cccc3n2CC(=O)Nc2ccc(Cl)cn2)CC1 [Example 7, 1-[(5-Chloro-pyridin-2-ylcarbamoyl)-methyl]-4-([1,4]oxazepane-4-carbonyl)-1H-indole-2-carboxylic acid (1-isopropyl-piperidin-4-yl)-amide]	3
Cc1oc(=O)oc1COC(=O)c1cccc2c1cc(C(=O)NC1CCN(C(C)C)CC1)n2Cc1cc(-c2ccc(Cl)s2)on1 [Example 14, 1-[5-(5-Chloro-thiophen-2-yl)-isoxazol-3-ylmethyl]-2-(1-isopropyl-piperidin-4-ylcarbamoyl)-1H-indole-4-carboxylic acid 5-methyl-2-oxo-[1,3]dioxol-4-ylmethyl ester]	1
